The values that follow come from patent US20260022142A1, “MACROCYCLIC IMMUNOMODULATORS” (Bristol-Myers Squibb Company, priority 2022, published 2026).

Bridge positions count the residues as written; N and C are the ends. Square brackets hold non-standard residues; d marks the D form. Peptide text beside a SMILES is read from it. * marks the point of attachment. ξ: configuration not given here. Phe(3-CF3) = N[C@@H](Cc1cccc(C(F)(F)F)c1)C(=O)O; Phe(4-COOH) = N[C@@H](Cc1ccc(C(=O)O)cc1)C(=O)O; Bip = N[C@@H](Cc1ccc(-c2ccccc2)cc1)C(=O)O; NH(CH2)14COOH = O=C(O)CCCCCCCCCCCCCCN*; Phe(2-Cl) = N[C@@H](Cc1ccccc1Cl)C(=O)O; Phe(3-Me) = Cc1cccc(C[C@H](N)C(=O)O)c1; Val(3-OH) = CC(C)(O)[C@H](N)C(=O)O; Ala(cPr) = N[C@@H](CC1CC1)C(=O)O; 4Pal = N[C@@H](Cc1ccncc1)C(=O)O; Cha = N[C@@H](CC1CCCCC1)C(=O)O; Thr(3ξ) = CC(O)[C@H](N)C(=O)O; 12Ado = NCCCCCCCCCCCC(=O)O; dDab = NCC[C@@H](N)C(=O)O; Carboxymethyl = O=C(O)C*; Orn = NCCC[C@H](N)C(=O)O; Aun = NCCCCCCCCCCC(=O)O; Dab = NCC[C@H](N)C(=O)O; Abu = CC[C@H](N)C(=O)O; Dap = NC[C@H](N)C(=O)O; AEEA = NCCOCCOCC(=O)O

For the assay, the target named is T1, PD-1/PD-L1 interaction (PE-labeled human PD-L1-Ig binding to Jurkat cell line over-expressing human PD-1) (Homo sapiens, UniProt Q15116).
T1 construct: expressed in transfected cells; host or cells: Jurkat
T1 sequence (Q15116 25-288): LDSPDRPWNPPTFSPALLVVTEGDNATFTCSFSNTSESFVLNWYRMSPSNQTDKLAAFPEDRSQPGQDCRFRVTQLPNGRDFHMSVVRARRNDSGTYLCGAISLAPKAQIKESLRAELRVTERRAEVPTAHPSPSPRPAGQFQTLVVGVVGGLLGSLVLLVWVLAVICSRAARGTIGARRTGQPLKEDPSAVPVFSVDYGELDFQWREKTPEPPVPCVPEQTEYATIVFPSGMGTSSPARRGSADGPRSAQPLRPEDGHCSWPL
Put plainly: Jurkat-PD-1 Cell Binding High-Content Screening Assay (CBA). The format is cell-based. The following applies: Jurkat cell line over-expressing human PD-1; PE-labeled PD-L1-Ig 20 nM final; read-out: Jurkat hPD1-PDL1 IC50. The procedure, abridged: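 Jurkat cells over-expressing human PD-1 (8×10^3 per well, DMEM/10% FCS) preincubated with compound 2 h at 37° C, then PE-labeled human PD-L1-Ig (20 nM final) added for 1 h. Cells fixed with paraformaldehyde, Hoechst-stained, and bound fluorescence quantified by high-content imaging.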
As to `Cc1cccc(C[C@@H]2NC(=O)[C@H](CC(=O)O)NC(=O)[C@H](Cc3ccc(OCC(=O)O)cc3)NC(=O)[C@H](CN)NC(=O)CSC[C@@H](C(=O)N[C@@H](CCN)C(=O)NCCOCCOCC(=O)NCCCCCCCCCCC(=O)O)NC(=O)[C@H](CN)NC(=O)[C@H](Cc3ccc(O)cc3)NC(=O)[C@H](CC3CCCCC3)NC(=O)[C@H](CCN)NC(=O)[C@@H](CC(C)C)NC(=O)[C@H](CCCN)NC(=O)[C@H](Cc3ccc(O)cc3)NC(=O)[C@H](Cc3ccc(-c4ccccc4)cc3)NC(=O)[C@H](Cc3ccc(O)cc3)NC2=O)c1` [Compound 2504] ({CH2CO}-[Dap]Y(Carboxymethyl)D[Phe(3-Me)]Y[Bip]Y[Orn][dL][Dab][Cha]Y[Dap]C[Dab][AEEA][Aun]-OH; thioether N-14), the IC50 worked out at 37.4 nM.
The figure for `CC[C@@H]1NC(=O)CSC[C@@H](C(=O)N[C@@H](CCN)C(=O)NCCCCCCCCCCCCCCC(=O)O)NC(=O)[C@H](Cc2c[nH]cn2)NC(=O)[C@H](C(C)(C)O)NC(=O)[C@H](CC2CCCCC2)NC(=O)[C@H](CCN)NC(=O)[C@@H](CC(C)C)NC(=O)[C@H](CCCN)NC(=O)[C@H](Cc2ccc(C(=O)O)cc2)NC(=O)[C@H](Cc2ccc(-c3ccccc3)cc2)NC(=O)[C@H](Cc2ccc(C(=O)O)cc2)NC(=O)[C@H](Cc2cccc(C(F)(F)F)c2)NC(=O)[C@H](CC(=O)O)NC(=O)[C@H](Cc2ccc(OCC(=O)O)cc2)NC1=O` [Compound 2929] ({CH2CO}-[Abu]Y(Carboxymethyl)D[Phe(3-CF3)][Phe(4-COOH)][Bip][Phe(4-COOH)][Orn][dL][Dab][Cha][Val(3-OH)]HC[Dab]-{NH(CH2)14COOH}; thioether N-14) is 369 nM; for `CC(=O)NCCCC[C@@H]1NC(=O)[C@H](Cc2ccc(-c3ccccc3)cc2)NC(=O)[C@H](Cc2ccc(O)cc2)NC(=O)[C@H](Cc2cccc(C)c2)NC(=O)[C@H](CC(=O)O)NC(=O)[C@H](Cc2ccc(OCC(=O)O)cc2)NC(=O)[C@H](CCN)NC(=O)CSC[C@@H](C(=O)N[C@@H](CCN)C(=O)N[C@@H](CO)C(=O)NCCCCCCCCCCCC(=O)O)NC(=O)[C@H](CCCN)NC(=O)[C@H](C(C)(C)O)NC(=O)[C@H](CC2CCCCC2)NC(=O)[C@H](CCN)NC(=O)[C@@H](CC(C)C)NC(=O)[C@H](CCCN)NC1=O` [Compound 3620] ({CH2CO}-[Dab]Y(Carboxymethyl)D[Phe(3-Me)]Y[Bip]K(Ac)[Orn][dL][Dab][Cha][Val(3-OH)][Orn]C[Dab]S[12Ado]-OH; thioether N-14) it is 37.2 nM.
The figure for `Cc1cccc(C[C@@H]2NC(=O)[C@H](CC(=O)O)NC(=O)[C@H](Cc3ccc(O)cc3)NC(=O)[C@H]([C@@H](C)O)NC(=O)CSC[C@@H](C(=O)N[C@@H](CCN)C(=O)NCCOCCOCC(=O)NCCCCCCCCCCC(=O)O)NC(=O)[C@H](CO)NC(=O)[C@H](C(C)(C)O)NC(=O)[C@H](CC3CCCCC3)NC(=O)[C@H](CCN)NC(=O)[C@@H](CC(C)C)NC(=O)[C@H](CCCN)NC(=O)[C@H](Cc3ccc(OCC(=O)O)cc3)NC(=O)[C@H](Cc3ccc(-c4ccccc4)cc3)NC(=O)[C@H](Cc3ccc(OCC(=O)O)cc3)NC2=O)c1` [Compound 2245] ({CH2CO}-TYD[Phe(3-Me)]Y(Carboxymethyl)[Bip]Y(Carboxymethyl)[Orn][dL][Dab][Cha][Val(3-OH)]SC[Dab][AEEA][Aun]-OH; thioether N-14) is 1.2 nM.
On to `Cc1cccc(C[C@@H]2NC(=O)[C@H](CC(=O)O)NC(=O)[C@H](Cc3ccc(OCC(=O)O)cc3)NC(=O)[C@H](Cc3ccncc3)NC(=O)CSC[C@@H](C(=O)N[C@H](CCN)C(=O)NCCCCCCCCCCC(=O)O)NC(=O)[C@H](Cc3cnc[nH]3)NC(=O)[C@H](C(C)(C)O)NC(=O)[C@H](CC3CCCCC3)NC(=O)[C@H](CCN)NC(=O)[C@@H](CC(C)C)NC(=O)[C@H](CCCN)NC(=O)[C@H](Cc3ccc(OCC(=O)O)cc3)NC(=O)[C@H](Cc3ccc(-c4ccccc4)cc3)NC(=O)[C@H](Cc3ccc(OCC(=O)O)cc3)NC2=O)c1` [Compound 3738] ({CH2CO}-[4Pal]Y(Carboxymethyl)D[Phe(3-Me)]Y(Carboxymethyl)[Bip]Y(Carboxymethyl)[Orn][dL][Dab][Cha][Val(3-OH)]HC[dDab][Aun]-OH; thioether N-14), for which the IC50 was 20.7 nM.
As for `Cc1cccc(C[C@@H]2NC(=O)[C@H](CC(=O)O)NC(=O)[C@H](Cc3ccc(OCC(=O)O)cc3)NC(=O)[C@H](CCCNC(=N)N)NC(=O)CSC[C@@H](C(=O)N[C@@H](CCN)C(=O)NCCCCCCCCCCC(=O)O)NC(=O)[C@H]([C@@H](C)O)NC(=O)[C@H](C(C)C)NC(=O)[C@H](CC3CC3)NC(=O)[C@H](CCN)NC(=O)[C@@H](CC(C)C)NC(=O)[C@H](CCCN)NC(=O)[C@H](Cc3ccc(OCC(=O)O)cc3)NC(=O)[C@H](Cc3ccc(-c4ccccc4)cc3)NC(=O)[C@H](Cc3ccc(OCC(=O)O)cc3)NC2=O)c1` [Compound 2169] ({CH2CO}-RY(Carboxymethyl)D[Phe(3-Me)]Y(Carboxymethyl)[Bip]Y(Carboxymethyl)[Orn][dL][Dab][Ala(cPr)]VTC[Dab][Aun]-OH; thioether N-14), the figure is 14.3 nM; as for `CC(C)C[C@H]1NC(=O)[C@H](CCCN)NC(=O)[C@H](C(C)C)NC(=O)[C@H](Cc2ccc(-c3ccccc3)cc2)NC(=O)[C@H](C(C)C)NC(=O)[C@H](Cc2c[nH]c3ccccc23)NC(=O)[C@H](CC(=O)O)NC(=O)[C@H](Cc2ccc(OCC(=O)O)cc2)NC(=O)[C@H](CN)NC(=O)CSC[C@@H](C(=O)N[C@@H](C)C(=O)N[C@@H](CCCN)C(=O)NCC(=O)NCCCCCCCCCCC(=O)O)NC(=O)[C@H]([C@@H](C)O)NC(=O)[C@H](C(C)C)NC(=O)[C@H](CC2CCCCC2)NC(=O)[C@H](Cc2c[nH]cn2)NC1=O` [Compound 1086] ({CH2CO}-[Dap]Y(Carboxymethyl)DWV[Bip]V[Orn][dL]H[Cha]VTCA[Orn]G[Aun]-OH; thioether N-14), 21 nM.
As for `Cc1cccc(C[C@@H]2NC(=O)[C@H](CC(=O)O)NC(=O)[C@H](Cc3ccc(OCC(=O)O)cc3)NC(=O)[C@H](CN)NC(=O)CSC[C@@H](C(=O)N[C@@H](CCN)C(=O)NCCOCCOCC(=O)NCCCCCCCCCCC(=O)O)NC(=O)[C@H](CCC(=O)O)NC(=O)[C@H](C(C)C)NC(=O)[C@H](Cc3ccccc3Cl)NC(=O)[C@H](CCN)NC(=O)[C@@H](CC(C)C)NC(=O)[C@H](CCCN)NC(=O)[C@H](Cc3ccc(OCC(=O)O)cc3)NC(=O)[C@H](Cc3ccc(-c4ccccc4)cc3)NC(=O)[C@H](Cc3ccc(C(=O)O)cc3)NC2=O)c1` [Compound 1277] ({CH2CO}-[Dap]Y(Carboxymethyl)D[Phe(3-Me)][Phe(4-COOH)][Bip]Y(Carboxymethyl)[Orn][dL][Dab][Phe(2-Cl)]VEC[Dab][AEEA][Aun]-OH; thioether N-14), the figure is 14.4 nM.
Consider `Cc1cccc(C[C@@H]2NC(=O)[C@H](CC(=O)O)NC(=O)[C@H](Cc3ccc(OCC(=O)O)cc3)NC(=O)[C@H](CCCNC(=N)N)NC(=O)CSC[C@@H](C(=O)N[C@H](CC(N)=O)C(=O)NCCCCCCCCCCC(=O)O)NC(=O)[C@H](C(C)O)NC(=O)[C@H](C(C)C)NC(=O)[C@H](CC3CCCCC3)NC(=O)[C@H](CCN)NC(=O)[C@@H](CC(C)C)NC(=O)[C@H](CCCN)NC(=O)[C@H](Cc3ccc(OCC(=O)O)cc3)NC(=O)[C@H](Cc3ccc(-c4ccccc4)cc3)NC(=O)[C@H](Cc3ccc(OCC(=O)O)cc3)NC2=O)c1` (stereo partly drawn) [Compound 3489] ({CH2CO}-RY(Carboxymethyl)D[Phe(3-Me)]Y(Carboxymethyl)[Bip]Y(Carboxymethyl)[Orn][dL][Dab][Cha]V[Thr(3ξ)]C[dN][Aun]-OH; thioether N-14), for which the IC50 is 22 nM.
The figure for `CC(C)C[C@H]1NC(=O)[C@H](CCCN)NC(=O)[C@H](C(C)C)NC(=O)[C@H](Cc2ccc(-c3ccccc3)cc2)NC(=O)[C@H](C(C)C)NC(=O)[C@H](Cc2c[nH]c3ccccc23)NC(=O)[C@H](CC(=O)O)NC(=O)[C@H](Cc2ccc(OCC(=O)O)cc2)NC(=O)[C@H](CN)NC(=O)CSC[C@@H](C(=O)N[C@@H](CCCN)C(=O)NCCCCCCCCCCC(=O)O)NC(=O)[C@@H](CCC(N)=O)NC(=O)[C@H](C(C)C)NC(=O)[C@H](CC2CCCCC2)NC(=O)[C@H](Cc2c[nH]cn2)NC1=O` [Compound 2796] ({CH2CO}-[Dap]Y(Carboxymethyl)DWV[Bip]V[Orn][dL]H[Cha]V[dQ]C[Orn][Aun]-OH; thioether N-14) is 78.5 nM; for `CC(C)C[C@H]1NC(=O)[C@H](CCCN)NC(=O)[C@H](C(C)C)NC(=O)[C@H](Cc2ccc(-c3ccccc3)cc2)NC(=O)[C@H](C(C)C)NC(=O)[C@H](Cc2c[nH]c3ccccc23)NC(=O)[C@H](CC(=O)O)NC(=O)[C@H](Cc2ccc(OCC(=O)O)cc2)NC(=O)[C@H](CN)NC(=O)CSC[C@@H](C(=O)NCCOCCOCC(=O)N[C@H](CC(N)=O)C(=O)NCCCCCCCCCCC(=O)O)NC(=O)[C@H]([C@@H](C)O)NC(=O)[C@H](C(C)C)NC(=O)[C@H](CC2CCCCC2)NC(=O)[C@H](Cc2cnc[nH]2)NC1=O` [Compound 1136] ({CH2CO}-[Dap]Y(Carboxymethyl)DWV[Bip]V[Orn][dL]H[Cha]VTC[AEEA][dN][Aun]-OH; thioether N-14) it is 33.7 nM.
The figure for `Cc1cccc(C[C@@H]2NC(=O)[C@H](CC(=O)O)NC(=O)[C@H](Cc3ccc(OCC(=O)O)cc3)NC(=O)[C@H](CN)NC(=O)CSC[C@@H](C(=O)N[C@@H](CCC(=O)O)C(=O)NCC(=O)NCCCCCCCCCCC(=O)O)NC(=O)[C@H]([C@@H](C)O)NC(=O)[C@H](C(C)C)NC(=O)[C@H](CC3CCCCC3)NC(=O)[C@H](Cc3cnc[nH]3)NC(=O)[C@@H](CC(C)C)NC(=O)[C@H](CCCN)NC(=O)[C@H](C(C)C)NC(=O)[C@H](Cc3ccc(-c4ccccc4)cc3)NC(=O)[C@H](C(C)C)NC2=O)c1` [Compound 1106] ({CH2CO}-[Dap]Y(Carboxymethyl)D[Phe(3-Me)]V[Bip]V[Orn][dL]H[Cha]VTCEG[Aun]-OH; thioether N-14) is 26.5 nM.
